Results: the NIST ThermoML archive (doi:10.1021/je300175w)
Several values for one entry are separate records, joined by “and”; a condition that tells them apart may be missing. Equal values may be shown once.

Test: mn = molality of the nth substance listed, in mol/kg
Details: 101 kPa, Liquid, Sing-around technique in a fixed-path interferometer

CC(CO)(CO)CO [1,1,1-trimethylolethane] + O
speed of sound
Details	278.15 K	283.15 K	288.15 K	293.15 K	298.15 K	308.15 K	318.15 K
m1 = 0.09995	1433.9 m/s and 1433.8 m/s	1454.4 m/s	1472.6 m/s	1488.5 m/s	1502.4 m/s and 1502.5 m/s	1525 m/s	1540.9 m/s
m1 = 0.1985	1441.3 m/s	1461.3 m/s	1479 m/s	1494.5 m/s	1508 m/s and 1508.1 m/s	1529.9 m/s	1545.2 m/s and 1545.5 m/s
m1 = 0.291	1448.2 m/s	1467.7 m/s	1484.9 m/s	1500.1 m/s	1513.2 m/s	1534.4 m/s and 1534.7 m/s	1549.1 m/s and 1549 m/s
m1 = 0.3923	1455.6 m/s	1474.6 m/s	1491.3 m/s and 1491.4 m/s	1506.1 m/s	1518.8 m/s	1539.3 m/s and 1539.6 m/s	1553.3 m/s and 1553.2 m/s
m1 = 0.4962	1463.1 m/s	1481.5 m/s and 1481.6 m/s	1497.8 m/s	1512.1 m/s	1524.4 m/s and 1524.5 m/s	1544.2 m/s and 1544.5 m/s	1557.6 m/s and 1557.4 m/s
m1 = 0.6042	1470.7 m/s	1488.6 m/s	1504.4 m/s	1518.2 m/s	1530.1 m/s and 1530.2 m/s	1549.2 m/s and 1548.9 m/s	1561.9 m/s and 1561.7 m/s
